Experimental findings from PubChem BioAssay AID179 (DTP/NCI, 2004) are described below.

Calls of active or inactive are those of the source.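 The calls were made as follows: active = compounds giving half or more protection of infected cells from virus-caused growth loss, again on retest; inactive = the rest.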

In the assay the test system is CEM cells HIV-1 protection, formazan growth assay. Kind of assay: NCI AIDS Antiviral Assay. To be noted: for IC50: measured here: growth of uninfected CEM cells. The method, boiled down:
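Human CEM cells, uninfected and HIV-1-infected, received five drug concentrations, and growth was read by soluble formazan assay. Compounds giving at least 50% protection were retested; reproducible 100% protection defined confirmed active.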

With `COC(=O)CCC1=CCC2(SC)C(=O)Nc3cccc1c32` (configuration not stated), the EC50 (as a rule, the concentration giving half of the maximal effect) is greater than 200 µM and the IC50 – broadly, the concentration at which inhibition is half-maximal – is greater than 200 µM. Regarding `CN(c1cn(C2CC[C@@H](CO)O2)c(=O)[nH]c1=O)C1CCCCC1` (some centres not stated), the EC50 was greater than 200 µM and the IC50 is greater than 200 µM.

As for `CC(NC(=O)OCC[P+](c1ccccc1)(c1ccccc1)c1ccccc1)C(=O)O` (configuration not stated), the EC50 is greater than 200 µM and the IC50 was 5.89 µM.

As for `COC(=O)C1=CCC(n2cnc3c(N)ncnc32)CC1` (configuration not stated), the EC50 was greater than 912 µM and the half-inhibitory concentration (IC50) came out at 110 µM. For `CN(CCc1ccc(Br)cc1)CCN1CCCCC1`, in that order: greater than 123 µM and 57.5 µM. As to `Cc1[nH]c2ccccc2c1-c1n[nH]c(=O)c2ccccc12`, the result was inactive. `COC(=O)/C=C1/Nc2c(n(C)c(=O)n(C)c2=O)NC1=O`: the EC50 is greater than 200 µM and the IC50 is greater than 200 µM.

As for `O=C1CN(C=C2C(=O)NC(=O)NC2=O)C(=S)N1`, the EC50 is greater than 200 µM and the IC50 was greater than 200 µM. With `CCOC(=O)C1=C(C)NC(=O)NC1c1ccccc1` (configuration not stated), the EC50 was greater than 200 µM and the IC50 was greater than 200 µM. As for `CC(=O)O[C@H]1CC[C@@]2(C)C(=CC[C@H]3[C@@H]4CC[C@H]([C@H](C)C(=O)OCC5OC(n6cc(C)c(=O)[nH]c6=O)CC5N=[N+]=[N-])[C@@]4(C)CC[C@@H]32)C1` (some centres not stated), the EC50 is greater than 200 µM and the IC50 amounted to 4.79 µM. `CC(C)(C)c1cc2c(OP(c3ccccc3)c3ccccc3)c(c1)Cc1cc(C(C)(C)C)cc(c1OP(c1ccccc1)c1ccccc1)Cc1cc(C(C)(C)C)cc(c1OP(c1ccccc1)c1ccccc1)Cc1cc(C(C)(C)C)cc(c1OP(c1ccccc1)c1ccccc1)C2`: the EC50 is greater than 1.05 µM and the IC50 was greater than 1.05 µM.

With `[CH2+][B-]1(C)n2cc(Br)c[n+]2[B-](C)(C)[n+]2cc(Br)cn21`, the EC50 is greater than 200 µM and the IC50 is 105 µM. For `CC1=NC(C)(C)N(O)C1(C)C`, in that order: greater than 200 µM and greater than 200 µM. In the case of `CCOC(=O)/C(C#N)=C1/c2ccccc2C(=O)C1(Cl)C(N)=O` (configuration not stated), the EC50 is greater than 200 µM and the IC50 is 28.8 µM. Regarding `N#CCCN(c1ccc(C=Nc2ccc(C(=O)O)cc2)cc1)S(=O)(=O)c1ccccc1`, the EC50 is greater than 302 µM and the IC50 is greater than 302 µM. Take `O=C(/C=C/c1ccc(OCC(=O)N2CCN(c3ccccc3)CC2)cc1)c1ccc(Cl)cc1`: the EC50 is greater than 29.5 µM and the IC50 was greater than 29.5 µM. With `Cc1[nH]c(=O)[nH]c(=O)c1CCSSCCc1c(C)[nH]c(=O)[nH]c1=O`, the EC50 is greater than 200 µM and the IC50 was greater than 200 µM.

For the molecule `C/C(=N/Nc1ccc([N+](=O)[O-])cc1[N+](=O)[O-])c1ccc(Sc2ccc(/C(C)=N/Nc3ccc([N+](=O)[O-])cc3[N+](=O)[O-])cc2)cc1`, the EC50 was greater than 50.1 µM and the IC50 is greater than 50.1 µM. On to `CCCCOC(=O)/C(O)=C(\C=NC(=S)c1cccnc1)C(=O)C=C(C)C`, for which the EC50 is greater than 200 µM and the IC50 was 41.7 µM. `COc1cc(OC)c2nccc(NCCCN(C)C)c2c1[N+](=O)[O-]`: the EC50 is greater than 200 µM and the IC50 worked out at 93.3 µM. In the same order, the values of `COc1ccc(N(C)CN(C)c2nc(N(C)C)nc(N(C)C)n2)cc1` are greater than 200 µM and 36.3 µM. In the same order, the values of `Cc1c(Cl)ccc2c1NC(=O)C2(O)CC(=O)c1ccc(Cl)cc1Cl` (configuration not stated) are greater than 0.708 µM and greater than 0.708 µM. For `O=S(C/C=C/CS(=O)c1ccccc1)c1ccccc1` (configuration not stated), in that order: greater than 813 µM and 70.8 µM. In the case of `Cc1[nH]c(=S)[nH]c(=O)c1CCl`, the EC50 was greater than 200 µM and the IC50 came to 107 µM. In the same order, the values of `O=C(Nc1ccc(O)cc1C(=O)O)c1ccc(O)cc1` are greater than 229 µM and greater than 229 µM. With `CSc1ncnc2nc(C(O)c3ccccc3)[nH]c12` (configuration not stated), the result was inactive. As for `COc1ccc(/C=C2\SC(=S)N(C=C3C(=O)NC(=S)NC3=O)C2=O)cc1OC`, the EC50 is greater than 200 µM and the IC50 stood at 29.5 µM.
